Results: BindingDB's records for doi:10.1021/jf050110v (China Pharmaceutical University, 2020)
pIC50: −log10 of the molar value.

Target: High affinity nerve growth factor receptor (Homo sapiens, UniProt P04629)
Experiment: Inhibition of wild type […] (unknown origin) incubated for 30 mins by caliper mobility shift assay

Chain of High affinity nerve growth factor receptor (P04629 whole entry): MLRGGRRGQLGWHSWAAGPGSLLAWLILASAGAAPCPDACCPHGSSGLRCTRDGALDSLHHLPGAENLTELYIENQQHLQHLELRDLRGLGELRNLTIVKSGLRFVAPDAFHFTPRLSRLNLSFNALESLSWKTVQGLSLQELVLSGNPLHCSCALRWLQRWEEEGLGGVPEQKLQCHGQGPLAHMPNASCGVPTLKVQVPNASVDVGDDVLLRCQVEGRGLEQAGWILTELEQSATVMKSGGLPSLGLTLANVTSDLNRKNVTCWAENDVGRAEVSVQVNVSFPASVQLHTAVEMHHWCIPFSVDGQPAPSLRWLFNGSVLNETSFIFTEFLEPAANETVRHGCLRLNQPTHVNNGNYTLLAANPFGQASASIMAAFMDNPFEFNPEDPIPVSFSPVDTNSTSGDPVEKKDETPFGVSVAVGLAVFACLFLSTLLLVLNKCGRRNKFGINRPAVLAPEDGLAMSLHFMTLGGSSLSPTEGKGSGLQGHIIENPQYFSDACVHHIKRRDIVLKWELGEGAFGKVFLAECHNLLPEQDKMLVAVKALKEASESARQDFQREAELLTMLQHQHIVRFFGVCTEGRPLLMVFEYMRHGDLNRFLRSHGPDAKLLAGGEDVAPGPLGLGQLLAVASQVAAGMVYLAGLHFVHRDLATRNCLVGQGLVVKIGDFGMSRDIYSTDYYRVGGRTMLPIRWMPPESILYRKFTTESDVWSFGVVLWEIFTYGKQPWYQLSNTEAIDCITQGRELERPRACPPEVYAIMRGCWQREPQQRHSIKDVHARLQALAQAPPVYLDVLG

SMILES	pIC50
CC(Nc1ccn2ncc(C(=O)N[C@H]3CC[C@H](O)CC3)c2n1)c1cccc(F)c1 (stereo partly specified)	8.52
O=C(NC1CCOCC1)c1cnn2ccc(NCc3cccc(F)c3)nc12	8.44
O=C(NC1CCOCC1)c1cnc2ccc(NCc3cccc(F)c3)nn12	8.08
O=C(N[C@H]1CC[C@H](O)CC1)c1cnc2ccc(NCc3cccc(F)c3)nn12	8.55
CN(Cc1cccc(F)c1)c1ccn2ncc(C(=O)NC3CCOCC3)c2n1	8.49
CO[C@H]1CC[C@H](NC(=O)c2cnc3ccc(NCc4cccc(F)c4)nn23)CC1	8.52

The next compounds have a higher pIC50 than those just listed; values first:

pIC50	SMILES
8.96	CO[C@H]1CC[C@H](NC(=O)c2cnn3ccc(N(C)Cc4cccc(F)c4)nc23)CC1
8.82	CO[C@H]1CC[C@H](NC(=O)c2cnn3ccc(NCc4cccc(F)c4)nc23)CC1
8.68	CC(Nc1ccn2ncc(C(=O)NC3CCOCC3)c2n1)c1cccc(F)c1 (stereo unspecified)
8.89	CN(Cc1cccc(F)c1)c1ccn2ncc(C(=O)N[C@H]3CC[C@H](O)CC3)c2n1
8.80	O=C(N[C@H]1CC[C@H](O)CC1)c1cnn2ccc(NCc3cccc(F)c3)nc12
